Laboratory results published in US5466675A, “Immunological activity of rhamnolipids” (priority 1992, dated 1995).
Like-named read-outs stand apart in the source and are kept apart here.

Experiments:
[1] = target: Dopamine D1 (human recombinant) (Homo sapiens, UniProt P21728); test: [3H] SCH23390 dopamine D1 receptor inhibition; type: binding; conditions: 0.5% DMSO
papain = papain (Carica papaya, UniProt P00784); test: enzyme inhibition, papain; type: biochemical
Procedure: (§1) Rhamnolipid (II) was tested in vitro against a wide array of enzymes.
(§2) All enzyme assays were done spectrophotometrically by computer linked automatic microplate reader (Labsystem Multiskan) and Diode Array spectrophotometer (Perkin Elmer).

alpha-glucosidase = test: enzyme inhibition, alpha-glucosidase; type: biochemical
Procedure: as §1, §2

alkalinephosphatase = test: enzyme inhibition, alkalinephosphatase; type: biochemical
Procedure: as §1, §2

coxsackie B2 virus = test: effect on viruses, coxsackie B2; type: cell-based; conditions: concentrations ≤100 ug/ml
Procedure: (§3) Tests were performed according to D. A. Vanden Berghe et al., Inst. Pasteur 84,101 (1986). Rhamnolipid (II) was toxic for VERO cells in concentrations ≥200 ug/ml, and cytotoxic on MT4 cells in concentrations >169.40 ug/ml.

[2] = system: vesicular stomatitis virus; type: cell-based; conditions: concentrations ≤100 ug/ml
HIV I, strain IIIB = test: effect on viruses, HIV I strain IIIB; type: cell-based; conditions: Human immunodeficiency virus 1, IIIB; read-out: maximal protection
Procedure: as §3

Candida albicans = test: minimum inhibitory concentration, Candida albicans; type: cell-based; conditions: in tested medium
Description: The Minimum inhibitory concentration (MIC) of Rhamnolipid II for Candida albicans, Escherichia coli, Staphylococcus aureus and Pseudomonas aeruginosa was >0.5% in tested medium.

[3] = system: A431 human epidermal cells; test: A431 cell DNA synthesis ([3H] thymidine incorporation); type: cell-based; conditions: for inhibition of DNA synthesis: absence of serum growth factors; for activity at 1 µg/mL / activity at 10 µg/mL / activity at 100 µg/mL: Homo sapiens, read-out: DNA synthesis, % placebo
Procedure: A431 cells were cultured for 24 h in microtitter platesm, with serum free medium or in the presence of serum with rhamnolipid. Then, [^3 H] thymidine was added and cells were harvested after 48 h; [^3 H] incorporated into DNA was determined.

bacterial revertants = test: Ames test; type: cell-based; conditions: 10, 100, 200, 500, 1000 ug/plate
Procedure: Tests were performed according to the method described by Ames N. Bruce et al. (Mutation Research, 31 (1975), 347- 364). Test concentrations of rhamnolipid (II) were 10, 100, 200, 500, 1000 ug/plate.
In the range of tested rhamnolipid concentrations, the number of bacterial revertants per Petri dish was in the range of spontaneous revertants which are present without S9 mixture. Therefore, it can be concluded that Rhamnolipid (II) was not mutagenic at the tested concentrations.

citrate bovine blood = test: hemolytic activity; type: cell-based
Procedure: Hemolytic activity of rhamnolipid (II) could be seen after sedimentation of erythrocytes, when hemoglobin colored the solution. If there was no hemolytic activity, erythrocytes would have precipitated without coloring the solution. For test purposes 1 ml of citrate bovine blood was added to 49 ml of isotonic solution.
Series of test samples were prepared in concentrations ranging from 1.0 mg/ml to 0.01 mg/ml. 1 ml of diluted citric bovine blood was added to 1 ml of diluted test sample. The test tube was gently mixed and left for 0.25 h, 1 h and 24 h, respectively. The lowest dose of rhamnolipid II that caused hemolysis in 15 min. was 0.35 mg/ml; in 1 h was 0.25 mg/ml and in 24 h was 0.125 mg/ml.

[4] = system: B-cells isolated from mouse spleen; test: B-lymphocyte proliferation + LPS; type: cell-based
Procedure: Procedure: B-cells were isolated from mouse spleen using convnetional procedures, and suspended in DMEM. 10^6 cells/ml were incubated overnight at 37° C. in the presence of 10 ug/ml lipopolysaccharide (LPS) to assess stimulation (positive score, related to 1 ng/ml rat interleukin-5) or suppression (negative score, related to control) of cell proliferation. The test substance was evaluated under these conditions at 10, 1, 0.1, and 0.01 uM. After overnight incubation, 2 uCi [^3 H] thymidine was added to each well. Cells were harvested after an additional 48 hour incubation, and thymidine incorporation assessed by liquid scintillation counting.

[5] = system: oxazolone-induced delayed type hypersensitivity; test: immunosuppression (cellular): oxazolone-induced delayed type hypersensitivity; type: in vivo, mouse (ICR, female); conditions: for Swelling (R -L) / ear thickness, Left Ear (No Oxa.) / ear thickness, Right Ear (24 hrs Oxa.): X +/- SEM
Procedure: The shaved abdominal surface of groups of 5 mice were sensitized by application of 0.1 ml of 5% oxazolone. The test substance was administered i.p after 1 hour and then daily for 5 consecutive doses. After an additional 4 days, the animals were challenged by application of 25 ul of 5% oxazolone to the right ear. Twenty-four hours later, ear thickness was measured with a Dyer Model micrometer gauge.
A 50 percent or greater decrease in drug-treated versus control animals is considered significant immunosuppressant activity.

[6] = system: Dermatitis circumscripta unilocularis; test: clinical treatment of dermatitis circumscripta unilocularis; type: in vivo, human; conditions: one patient
Procedure: 17 patients, 11 men and 6 women, were treated with rhamnolipid (II). Among these, 12 patients were suffering from Psoriasis, 2 from Neurodermitis, 1 from Lichen ruber planus, 1 from Serborhoic dermatitis and one from Dermatitis circumscripta unilocularis eczematoides.

mice C57B1/6 = test: range-finding study phase (five doses per day)
[7] = five doses per day, intraperitoneal

Chain of Dopamine D1 (human recombinant) (P21728 whole entry): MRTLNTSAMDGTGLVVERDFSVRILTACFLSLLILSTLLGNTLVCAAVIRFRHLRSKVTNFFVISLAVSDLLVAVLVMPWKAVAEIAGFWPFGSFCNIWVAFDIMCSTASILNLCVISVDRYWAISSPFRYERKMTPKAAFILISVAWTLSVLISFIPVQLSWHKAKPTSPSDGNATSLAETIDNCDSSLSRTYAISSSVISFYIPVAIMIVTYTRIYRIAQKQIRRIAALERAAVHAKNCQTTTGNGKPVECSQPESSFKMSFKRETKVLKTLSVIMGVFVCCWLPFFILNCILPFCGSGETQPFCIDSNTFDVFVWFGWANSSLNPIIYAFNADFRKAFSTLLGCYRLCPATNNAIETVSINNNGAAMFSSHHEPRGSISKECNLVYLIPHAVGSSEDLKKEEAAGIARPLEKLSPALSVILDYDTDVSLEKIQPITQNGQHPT
Chain of papain (P00784 134-345): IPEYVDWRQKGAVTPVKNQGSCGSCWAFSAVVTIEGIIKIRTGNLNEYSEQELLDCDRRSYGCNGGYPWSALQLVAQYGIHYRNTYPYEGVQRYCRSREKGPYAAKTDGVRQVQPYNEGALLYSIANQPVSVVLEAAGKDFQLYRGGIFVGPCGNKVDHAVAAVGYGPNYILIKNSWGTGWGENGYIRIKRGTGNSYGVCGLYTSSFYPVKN

CCCCCCCC(CC(=O)O)OC(=O)CC(CCCCCCC)O[C@@H]1O[C@@H](C)[C@H](O)[C@@H](O)[C@H]1O[C@@H]1O[C@@H](C)[C@H](O)[C@@H](O)[C@H]1O (stereo partly drawn) [Rhamnolipid (II), (alpha-L-rhamnopyranosyl-(1,2)alpha-L-rhamnopyranosyl)-3-hydroxydecanoyl-3-hydroxydecanoic acid]
inhibition at 0.01 µM ([1]; 0.01 μM): 8% | inhibition at 1 µM ([1]; 1 μM): 8% | inhibition at 100 µM ([1]; 100 μM): 101% | effect on enzyme (papain): no effect | effect on enzyme (alpha-glucosidase): no effect | effect on enzyme (alkalinephosphatase): no effect | antiviral activity (coxsackie B2 virus): no activity | antiviral activity [2]: no activity | Emax (HIV I, strain IIIB): 9% | Minimum inhibitory concentration (MIC) (Candida albicans): > 0.5% | inhibition of DNA synthesis ([3]; 0.1 mg/ml): completely inhibited | inhibition of DNA synthesis ([3]; 0.1 mg/ml, listed as rhamnolipid II): total inhibition | DNA synthesis [3H] Thy inc. ([3]; 10 (v/v) % FCS, 0.001 mg/ml): 35400 +/- 2786 dpm | DNA synthesis [3H] Thy inc. ([3]; 10 (v/v) % FCS, 0.01 mg/ml): 31273 +/- 2028 dpm | DNA synthesis [3H] Thy inc. ([3]; 10 (v/v) % FCS, 0.1 mg/ml): 37055 +/- 1881 dpm | activity at 1 µg/mL ([3]; A-431, 10 (v/v) % FCS, 0.001 mg/ml): 106 ± 8% | activity at 10 µg/mL ([3]; A-431, 10 (v/v) % FCS, 0.01 mg/ml): 94 ± 6% | activity at 100 µg/mL ([3]; A-431, 10 (v/v) % FCS, 0.1 mg/ml): 111 ± 6% | activity at 1 µg/mL ([3]; A-431, serum free medium, 0.001 mg/ml): 91 ± 32% | activity at 10 µg/mL ([3]; A-431, serum free medium, 0.01 mg/ml): 64 ± 19% | activity at 100 µg/mL ([3]; A-431, serum free medium, 0.1 mg/ml): 2 ± 2% | DNA synthesis [3H] Thy inc. ([3]; serum free medium, 0.001 mg/ml): 6935 +/- 2432 dpm | DNA synthesis [3H] Thy inc. ([3]; serum free medium, 0.01 mg/ml): 4885 +/- 1480 dpm | DNA synthesis [3H] Thy inc. ([3]; serum free medium, 0.1 mg/ml): 134 +/- 129 dpm | mutagenicity (Ames test) (bacterial revertants): not mutagenic | mutagenicity (Ames test) (bacterial revertants; listed as rhamnolipid II): negative | lowest dose that caused hemolysis (citrate bovine blood; 15 min): 0.35 mg/mL | lowest dose that caused hemolysis (citrate bovine blood; 1 h): 0.25 mg/mL | lowest dose that caused hemolysis (citrate bovine blood; 24 h): 0.125 mg/mL | amount that led to hemolytic activity (citrate bovine blood; diluted in 2 ml isotonic solution of diluted citric bovine blood, lower did not): 0.25 mg | B-cell proliferation ([4]; 10 uM and 1 uM, added lipopolysaccharide): significant suppression | activation at 0.001 µM ([4]; Mus musculus, B-cell, read-out: % Stimulation (+)/Suppression (-)): 13% | activation at 0.01 µM ([4]; Mus musculus, B-cell, 0.01 uM, LPS, 0.5% DMSO, read-out: % Stimulation (+)/Suppression (-)): -15% | activation at 0.1 µM ([4]; Mus musculus, B-cell, 0.1 uM, LPS, 0.5% DMSO, read-out: % Stimulation (+)/Suppression (-)): -9% | activation at 1 µM ([4]; Mus musculus, B-cell, 1 uM, LPS, 0.5% DMSO, read-out: % Stimulation (+)/Suppression (-)): -25% | activation at 10 µM ([4]; Mus musculus, B-cell, 10 uM, LPS, 0.5% DMSO, read-out: % Stimulation (+)/Suppression (-)): -54% | Swelling Inh. % ([5]; IP 0.1 × 5 mg/kg): 16% | Swelling (R -L) ([5]; IP 0.1 × 5 mg/kg): 19.6 +/- 2.9 × 0.01 mm | ear thickness, Left Ear (No Oxa.) ([5]; IP 0.1 × 5 mg/kg): 21.0 +/- 0.8 × 0.01 mm | ear thickness, Right Ear (24 hrs Oxa.) ([5]; IP 0.1 × 5 mg/kg): 40.6 +/- 3.0 × 0.01 mm | Swelling Inh. % ([5]; IP 1 × 5 mg/kg): 22% | Swelling (R -L) ([5]; IP 1 × 5 mg/kg): 20.2 +/- 1.7 × 0.01 mm | ear thickness, Left Ear (No Oxa.) ([5]; IP 1 × 5 mg/kg): 21.0 +/- 0.5 × 0.01 mm | ear thickness, Right Ear (24 hrs Oxa.) ([5]; IP 1 × 5 mg/kg): 41.2 +/- 1.8 × 0.01 mm | Swelling Inh. % ([5]; IP 10 × 5 mg/kg): 19% | Swelling (R -L) ([5]; IP 10 × 5 mg/kg): 20.8 +/- 1.2 × 0.01 mm | ear thickness, Left Ear (No Oxa.) ([5]; IP 10 × 5 mg/kg): 20.8 +/- 0.7 × 0.01 mm | ear thickness, Right Ear (24 hrs Oxa.) ([5]; IP 10 × 5 mg/kg): 41.6 +/- 1.2 × 0.01 mm | Swelling Inh. % ([5]; IP 100 × 5 mg/kg): 26% | Swelling (R -L) ([5]; IP 100 × 5 mg/kg): 19.2 +/- 0.6 × 0.01 mm | ear thickness, Left Ear (No Oxa.) ([5]; IP 100 × 5 mg/kg): 19.0 +/- 0.9 × 0.01 mm | cure [6]: completely cured | five dose toxicity (mice C57B1/6; [7]): 5 mg/kg | lower bracket dose (LBD) (mice C57B1/6; [7]): 45 mg/kg | upper bracket dose (UBD) (mice C57B1/6; [7]): 125 mg/kg | difference between rhamnolipid (II) and control (mice C57B1/6; fourth day after application): no statistical differences
